Test results taken from US20240309015A1, “Methods for the Treatment of Fibrotic Disease” (SHY Therapeutics, LLC, priority 2021, published 2024).

Assays:
Smad2/3 phosphorylation = assay: Phospho-Smad2/3 Inhibition Assay in PANC-1; type: cell-based; conditions: Homo sapiens; 10 μM compound, 3 h; TGF-b1 stimulated PANC-1; western blot; read-out: % inh of Smad2/3 phosphorylation in PANC-1
Method: Cell lines: Human tumor-derived pancreatic cancer cell line Panc-1 and mouse muscle myoblast C2C12 were purchased from American Type Culture Collection and grown in complete DMEM-High Glucose, supplemented with penicillin (100 U/mL), streptomycin (100 μg/mL), and 10% heat-inactivated FBS at 37° C. in a humidified incubator with 5% CO2.
Method: Cells were plated at 350000 cells/well density in a 12-well plate, allowed 3 hours to adhere to the plate, then starved in the appropriate medium in the presence of 0.5% FBS overnight. The small molecules to be tested were added to the cells in the final concentration of 10 μM in the presence of 0.3% DMSO for 3 hours incubation at 37° C. For IC50 value determination, serial dilutions of compounds were added to cells under the same conditions. Next, Panc-1 cells were stimulated with 10 ng/ml TGF-b1 for 1 hour, and C2C12 cells were stimulated with 10 ng/ml TGF-b1 for 20 minutes (recombinant human TGF-b1, R&D Systems). After stimulation cells were lysed with lysis buffer containing 1% Triton X-100, EDTA, and Halt™ Protease & Phosphatase Inhibitor Cocktail (Thermo Scientific). Protein concentration was assessed by BCA protein assay (Thermo Scientific). Phosphorylation level of Smad2/Smad3 was determined by western blot.
Western blot protocol: Equal amounts of protein (15-50 μg) were separated by SDS-PAGE and transferred to nitrocellulose membranes (Invitrogen by Thermo Fisher Scientific). The membrane was stained with Ponceau S Stain (Boston BioProducts) to verify uniform protein loading. Membranes were blocked with 10% milk and phosphorylation levels of Smad2/Smad3 were assessed by incubating overnight at 4° C. with the following antibodies: Phospho-Smad2 (Ser465/467) and Phosph-Smad3 (Ser423/425), both from Cell Signaling Technology. Then the membranes were incubated with HRP-conjugated secondary antibody (Jackson Immunoresearch, West Grove, PA). Bands were incubated in Amersham ECL Prime Western Blotting Detection Reagent (GE Healthcare) and visualized using the ChemiDoc MP imaging system (Bio-Rad).

IL-6 = assay: Mouse IL6 Quantification Assay (LPS-stimulated RAW 264.7); type: cell-based; parameters: dose or concentration left out as unconfirmed; conditions: RAW264.7, ELISA, read-out: IL-6: % inh.
TNFα = assay: Mouse TNF Alpha Quantification Assay (LPS-stimulated RAW 264.7); type: cell-based; parameters: dose or concentration left out as unconfirmed; conditions: RAW264.7, ELISA, read-out: TNFα: % inh.
KRas wild type = assay: Ras GTP Binding Domain Inhibition Assay, KRas wild type; conditions: at 20 μM; for KRas wild type + SOS: % inh.: with SOS; for KRas wild type: % inh.: without SOS
In short: (§1)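 Assay steps: protein on Ni-coated plate overnight at 4° C, compound for 3 h at room temperature (20 μM single point or serial dilution for IC50), then 100 nM dye-labelled GTP for 45 min. Washed wells read by fluorescence; Sos was added in the last hour in some runs.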

KRas G12D mutant = assay: Ras GTP Binding Domain Inhibition Assay, KRas G12D mutant; conditions: at 20 μM; for KRas G12D mutant + SOS: % inh.: with SOS; for KRas G12D mutant: % inh.: without SOS
In short: as §1

KRas G12C mutant = assay: Ras GTP Binding Domain Inhibition Assay, KRas G12C mutant; conditions: at 20 μM; for KRas G12C mutant + SOS: % inh.: with SOS; for KRas G12C mutant: % inh.: without SOS
In short: as §1

Rho-A = assay: Ras GTP Binding Domain Inhibition Assay, Rho-A; conditions: at 20 μM; without SOS
In short: as §1

Row | Structure (SMILES) | KRas wild type + SOS: % inh. (KRas wild type) | KRas wild type: % inh. (KRas wild type) | KRas G12D mutant + SOS: % inh. (KRas G12D mutant; Table 7) | KRas G12D mutant + SOS: % inh. (KRas G12D mutant; Table 8) | KRas G12D mutant: % inh. (KRas G12D mutant; Table 7) | KRas G12D mutant: % inh. (KRas G12D mutant; Table 8) | KRas G12C mutant + SOS: % inh. (KRas G12C mutant) | KRas G12C mutant: % inh. (KRas G12C mutant) | Rho-A: % inh. (Rho-A) | inhibition at 10 µM (Smad2/3 phosphorylation) | inhibition (IL-6) | inhibition (TNFα)
1 | COc1cc(Cn2c(-c3nccn3C)nc3sc(-c4ccn(C(C)C)n4)c(C)c3c2=O)ncn1 [Compound 35, 6-(1-Isopropyl-1H-pyrazol-3-yl)-3-((6-methoxypyrimidin-4-yl)methyl)-5-methyl-2-(1-methyl-1H-imidazol-2-yl)thieno[2,3-d]pyrimidin-4(3H)-one] | A (A = 1-25% inhibition) | A (A = 1-25% inhibition) | 0 (0 = 0% inhibition) | 0 (0 = 0% inhibition) | A (A = 1-25% inhibition) | A (A = 1-25% inhibition) | A (A = 1-25% inhibition) | 0 (0 = 0% inhibition) | 0 (0 = 0% inhibition) | 0% | 1 to 25% | 1 to 25%
2 | COc1cccc(-c2sc3nc(-c4nccn4C)nc(N[C@H]4C[C@H](OC)C4)c3c2-c2ccccc2)c1F [Compound 40, 6-(2-Fluoro-3-methoxyphenyl)-N-((1r,3r)-3-methoxycyclobutyl)-2-(1-methyl-1H-imidazol-2-yl)-5-phenylthieno[2,3-d]pyrimidin-4-amine] | D (D = 76-100% inhibition) | C (C = 46-75% inhibition) | D (D = 76-100% inhibition) | D (D = 76-100% inhibition) | C (C = 46-75% inhibition) | C (C = 46-75% inhibition) | D (D = 76-100% inhibition) | C (C = 46-75% inhibition) | B (B = 26-45% inhibition) | 76 to 100% | 76 to 100% | 76 to 100%
3 | COCCCCn1c(-c2nccn2C)nc2sc(-c3ccn(C(C)C)n3)c(C)c2c1=O [Compound 33, 6-(1-Isopropyl-1H-pyrazol-3-yl)-3-(4-methoxybutyl)-5-methyl-2-(1-methyl-1H-imidazol-2-yl)thieno[2,3-d]pyrimidin-4(3H)-one] | A (A = 1-25% inhibition) | 0 (0 = 0% inhibition) | 0 (0 = 0% inhibition) | 0 (0 = 0% inhibition) | 0 (0 = 0% inhibition) | 0 (0 = 0% inhibition) | A (A = 1-25% inhibition) | 0 (0 = 0% inhibition) | 0 (0 = 0% inhibition) | 0% | 46 to 75% | 0%
4 | COCCCCOc1nc(-c2nccn2C)nc2sc(-c3ccn(C(C)C)n3)c(C)c12 [Compound 34, 6-(1-Isopropyl-1H-pyrazol-3-yl)-4-(4-methoxybutoxy)-5-methyl-2-(1-methyl-1H-imidazol-2-yl)thieno[2,3-d]pyrimidine] | 0 (0 = 0% inhibition) | A (A = 1-25% inhibition) | 0 (0 = 0% inhibition) | 0 (0 = 0% inhibition) | A (A = 1-25% inhibition) | A (A = 1-25% inhibition) | A (A = 1-25% inhibition) | 0 (0 = 0% inhibition) | 0 (0 = 0% inhibition) | 0% | 76 to 100% | 0%

Second part, led by results:

Row | KRas wild type + SOS: % inh. (KRas wild type) | KRas wild type: % inh. (KRas wild type) | KRas G12D mutant + SOS: % inh. (KRas G12D mutant; Table 7) | KRas G12D mutant + SOS: % inh. (KRas G12D mutant; Table 8) | KRas G12D mutant: % inh. (KRas G12D mutant; Table 7) | KRas G12D mutant: % inh. (KRas G12D mutant; Table 8) | KRas G12C mutant + SOS: % inh. (KRas G12C mutant) | KRas G12C mutant: % inh. (KRas G12C mutant) | Rho-A: % inh. (Rho-A) | Structure (SMILES) | inhibition at 10 µM (Smad2/3 phosphorylation) | inhibition (IL-6) | inhibition (TNFα)
5 | D (D = 76-100% inhibition) | D (D = 76-100% inhibition) | D (D = 76-100% inhibition) | D (D = 76-100% inhibition) | D (D = 76-100% inhibition) | D (D = 76-100% inhibition) | D (D = 76-100% inhibition) | C (C = 46-75% inhibition) | C (C = 46-75% inhibition) | Cc1c(-c2ccn(C(C)C)n2)sc2nc(-c3nccn3C)nc(NCCN3CCS(=O)(=O)CC3)c12 [Compound 23, 4-(2-((6-(1-Isopropyl-1H-pyrazol-3-yl)-5-methyl-2-(1-methyl-1H-imidazol-2-yl)thieno[2,3-d]pyrimidin-4-yl)amino)ethyl)thiomorpholine 1,1-dioxide] | 0% | 46 to 75% | 0%
6 | A (A = 1-25% inhibition) | A (A = 1-25% inhibition) | 0 (0 = 0% inhibition) | 0 (0 = 0% inhibition) | 0 (0 = 0% inhibition) | 0 (0 = 0% inhibition) | 0 (0 = 0% inhibition) | 0 (0 = 0% inhibition) | 0 (0 = 0% inhibition) | COCCCn1c(-c2nccn2C)nc2sc(-c3ccn(C(C)C)n3)c(C)c2c1=O [Compound 31, 6-(1-Isopropyl-1H-pyrazol-3-yl)-3-(3-methoxypropyl)-5-methyl-2-(1-methyl-1H-imidazol-2-yl)thieno[2,3-d]pyrimidin-4(3H)-one] | 0% | 46 to 75% | 0%
7 | D (D = 76-100% inhibition) | D (D = 76-100% inhibition) | D (D = 76-100% inhibition) | D (D = 76-100% inhibition) | D (D = 76-100% inhibition) | D (D = 76-100% inhibition) | D (D = 76-100% inhibition) | D (D = 76-100% inhibition) | D (D = 76-100% inhibition) | Cc1c(-c2ccn(C(C)C)n2)sc2nc(-c3nccn3C)nc(NCCN3CCOCC3)c12 [Compound 22, 6-(1-Isopropyl-1H-pyrazol-3-yl)-5-methyl-2-(1-methyl-1H-imidazol-2-yl)-N-(2-morpholinoethyl)thieno[2,3-d]pyrimidin-4-amine] | 0% | 76 to 100% | 1 to 25%
8 | 0 (0 = 0% inhibition) | A (A = 1-25% inhibition) | 0 (0 = 0% inhibition) | 0 (0 = 0% inhibition) | 0 (0 = 0% inhibition) | 0 (0 = 0% inhibition) | 0 (0 = 0% inhibition) | A (A = 1-25% inhibition) | 0 (0 = 0% inhibition) | COCCOc1nc(-c2nccn2C)nc2sc(-c3ccn(C(C)C)n3)c(C)c12 [Compound 30, 6-(1-Isopropyl-1H-pyrazol-3-yl)-4-(2-methoxyethoxy)-5-methyl-2-(1-methyl-1H-imidazol-2-yl)thieno[2,3-d]pyrimidine] | 0% | 0% | 0%
